Assay results: patent US10583206B2, “Radioactive probe for detecting hydrogen sulfide” (KYUNGPOOK NATIONAL UNIVERSITY INDUSTRY-ACADEMIC COOPERATION …, priority 2015, dated 2020)

Experiments:
[1] = Hydrogen sulfide selectivity test: decomplexation by DTT; format: physicochemical; conditions: DL-dithiothretitol (DTT, 100 μM); 37° C. for 15 minutes
Experimental: (§1) In addition to hydrogen sulfide, many different anions, radicals, etc. exist in the body. Therefore, to examine selective reactivity of the ^64Cu-labeled complex compound according to the present disclosure for sulfide ions, the following experiment was performed.
(§2) About 45 μCi-55 μCi of the ^64Cu-labeled complex compound (250 μL of triple distilled water) was mixed with 100 μM of various anion solutions (250 μL of triple distilled water) including biothiol, and stirred at 37° C. for 15 minutes.
(§3) Formation of copper sulfide (^64CuS) was quantified by using a radio-TLC scanner.
(§4) Various biothiol or salt solutions were prepared by dissolving the compounds in triple distilled water.
(§5) In Table, concentrations of all biothiols and other competitive materials are 100 μM. Further, specific concentrations of biothiols, anions, and oxidants used in Table are as follows: [L-Cys (1 mM); L-Hcys (10 mM); GSH (10 mM); DL-dithiothretitol (DTT, 100 μM); L-ascorbic acid (L-AsA, 10 mM); 2-mercaptoethanol (2-ME, 10 mM); NaCl (10 mm); KI (1 mM); Na2S2O3 (1 mM); Na2S2O5 (1 mM); NaOAc (1 mM); H2O2 ([…]); NaClO4 (100 μM); NaHCO3 (100 μM); NaNO2 ([…]); NaN3 (100 μM); ATB 337 (100 μM); diallyl trisulphide (100 μM)].

[2] = Hydrogen sulfide selectivity test: decomplexation by ATB 337; format: physicochemical; conditions: ATB 337 (100 μM); 37° C. for 15 minutes
Experimental: as §1, §2, §3, §4, §5

[3] = Hydrogen sulfide selectivity test: decomplexation by Cys; format: physicochemical; conditions: 100 μM or L-Cys (1 mM), 37° C. for 15 minutes
Experimental: as §1, §2, §3, §4, §5

[4] = Hydrogen sulfide selectivity test: decomplexation by NaCl; format: physicochemical; conditions: 100 μM or NaCl (10 mm), 37° C. for 15 minutes
Experimental: as §1, §2, §3, §4, §5

[5] = Hydrogen sulfide selectivity test: decomplexation by Na2S2O5; format: physicochemical; conditions: 100 μM or (1 mM), 37° C. for 15 minutes
Experimental: as §1, §2, §3, §4, §5

[6] = Test of hydrogen sulfide detection sensitivity (% decomplexation with NaHS, radio-TLC); format: physicochemical; conditions: 37° C. for 15 minutes
Experimental: To measure hydrogen sulfide detection sensitivity of the ^64Cu-labeled complex compound according to the present disclosure, the following experiment was performed.
About 45 μCi-55 μCi of ^64Cu-labeled complex compound (250 μL of triple distilled water) was mixed with various concentrations of NaHS solution (250 µL of triple distilled water), and stirred at 37° C. for 15 minutes (a total volume used in the reaction was equally 500 μL). After completion of the reaction, the resulting products were strongly stirred to mix appropriately.
Formation of copper sulfide (^64CuS) was confirmed by quantification of % decomplexation by using a radio-TLC scanner, and results are shown in the following Tables 2 and 3.

[7] = Hydrogen sulfide selectivity test: decomplexation by Kl; format: physicochemical; conditions: 100 μM or KI (1 mM), 37° C. for 15 minutes
Experimental: as §1, §2, §3, §4, §5

[8] = Hydrogen sulfide selectivity test: decomplexation by NaHCO3; format: physicochemical; conditions: NaHCO3 (100 μM); 37° C. for 15 minutes
Experimental: as §1, §2, §3, §4, §5

[9] = Hydrogen sulfide selectivity test: decomplexation by DAT (diallyl trisulphide); format: physicochemical; conditions: DAT = diallyl trisulphide (100 μM); 37° C. for 15 minutes
Experimental: as §1, §2, §3, §4, §5

[10] = Hydrogen sulfide selectivity test: decomplexation by GSH; format: physicochemical; conditions: 100 μM or GSH (10 mM), 37° C. for 15 minutes
Experimental: as §1, §2, §3, §4, §5

[11] = Test of hydrogen sulfide detection over time (^64CuS formation, radio-TLC); format: physicochemical; design: unit not given here; conditions: 100 μM NaHS, 37° C.
Experimental: To examine reactivity of the ^64Cu-labeled complex compound according to the present disclosure over time, the following experiment was performed.
A detailed experimental method is as follows.
About 45 μCi-50 μCi of ^64Cu-labeled complex compound (250 μL of triple distilled water) was mixed with 100 μM of NaHS solution ([…] of triple distilled water), and stirred at 37° C. for 15 minutes. Formation of copper sulfide (^64CuS) was quantified by using a radio-TLC scanner.

[12] = Hydrogen sulfide selectivity test: decomplexation by NaClO4; format: physicochemical; conditions: NaClO4 (100 μM); 37° C. for 15 minutes
Experimental: as §1, §2, §3, §4, §5

[13] = Hydrogen sulfide selectivity test: decomplexation by NaOAc; format: physicochemical; conditions: 100 μM or (1 mM), 37° C. for 15 minutes
Experimental: as §1, §2, §3, §4, §5

Paw inflammation model = format: in vivo, Balb/c or ICR mice
Experimental: (1) Paw Pain Inflammation Model
A small amount of CFA (complete Freund's adjuvant) or formalin was injected into only one paw (right) of the hind paws of Balb/c or ICR mice to establish inflammation models. 1 day after injection of the inflammation inducer, the mice were used in imaging or other in vivo experiments.
It is a known fact that inflamed sites show high concentrations of hydrogen sulfide.
Nuclear medicine imaging was measured by using an Inveon PET/CT system of Siemens Healthcare, and optical imaging was measured by using IVIS spectrum CT equipment. Cherenkov radiation emitted from ^64Cu was measured by using a highly sensitive CCD (charge-coupled device) camera.
Imaging was measured for 1 minute to 5 minutes, and a radiation dose was about 50 μCi to 2000 μCi, and photographs were variously taken as needed, such as immediately after first injection, at 1 hour, 4 hours, and 24 hours later.

[14] = Hydrogen sulfide selectivity test: decomplexation by H2O2; format: physicochemical; conditions: H2O2 (100 µM); 37° C. for 15 minutes
Experimental: as §1, §2, §3, §4, §5

[15] = Hydrogen sulfide selectivity test: decomplexation by Na2S2O3; format: physicochemical; conditions: 100 μM or (1 mM), 37° C. for 15 minutes
Experimental: as §1, §2, §3, §4, §5

[16] = Hydrogen sulfide selectivity test: decomplexation by NaNO2; format: physicochemical; conditions: NaNO2 (100 µM); 37° C. for 15 minutes
Experimental: as §1, §2, §3, §4, §5

[17] = Hydrogen sulfide selectivity test: decomplexation by L-AsA; format: physicochemical; conditions: L-ascorbic acid; 100 μM or (L-AsA, 10 mM); 37° C. for 15 minutes
Experimental: as §1, §2, §3, §4, §5

[18] = Hydrogen sulfide selectivity test: decomplexation by Hcys; format: physicochemical; conditions: 100 μM or L-Hcys (10 mM), 37° C. for 15 minutes
Experimental: as §1, §2, §3, §4, §5

[19] = Hydrogen sulfide selectivity test: decomplexation by ME; format: physicochemical; conditions: 2-mercaptoethanol; 100 μM or (2-ME, 10 mM); 37° C. for 15 minutes
Experimental: as §1, §2, §3, §4, §5

[20] = Hydrogen sulfide selectivity test: decomplexation by NaN3; format: physicochemical; conditions: NaN3 (100 μM); 37° C. for 15 minutes
Experimental: as §1, §2, §3, §4, §5

[21] = Test of hydrogen sulfide selectivity (overall statements); format: physicochemical
Experimental: as §1, §2, §3, §4, §5

[22] = tested on: Myocardial infarction model; assay: Imaging study in myocardial infarction model (PET); format: in vivo, Sprague-Dawley rats; conditions: PET imaging after injection
Text: (2) Myocardial Infarction Model
A myocardial infarction model was established by using Sprague-Dawley rats (12-week-old or older, about 250 g). 2 days later after induction of myocardial infarction by occlusion of the coronary arteries in the heart, the rats were used in imaging tests. It is a known fact that myocardial infarction sites show high concentrations of hydrogen sulfide.
It is known that myocardial infarction sites show high concentrations of hydrogen sulfide. Thus, after induction of myocardial infarction by coronary artery occlusion in rats, 50 μCi-900 μCi of the ^64Cu-labeled complex compound was injected via the tails of the rats, and uptake in the myocardial infarction site was examined over time by PET imaging.
36 hours after establishment of the myocardial infarction model, 730 μCi of the radioisotope-labeled complex compound of the present disclosure was injected and nuclear medicine imaging was performed. 2 days later, […] of FDG was injected into the same rat, and then FDG-PET images were obtained. Results are shown in FIGS. 15 to 17 (in the nuclear medicine imaging, the upper image represents a transverse image, and the lower image represents a coronal image).

SMILES	Decomplexation [%] [1] [%]	Decomplexation [%] [2] [%]	Decomplexation [%] [3] [%]	Decomplexation [%] [4] [%]	Decomplexation [%] [5] [%]	% decomplexation ([6]; NaHS 0 μM) [%]	% decomplexation ([6]; NaHS 1 μM) [%]	% decomplexation ([6]; NaHS 10 μM) [%]	% decomplexation ([6]; NaHS 15 μM) [%]	% decomplexation ([6]; NaHS 20 μM) [%]	% decomplexation ([6]; NaHS 50 μM) [%]	% decomplexation ([6]; NaHS 100 μM) [%]	Decomplexation [%] [7] [%]	Decomplexation [%] [8] [%]	Decomplexation [%] [10] [%]	Formation of copper sulfide (^64CuS) over time ([11]; 10 sec)	Formation of copper sulfide (^64CuS) over time ([11]; 30 sec)	Formation of copper sulfide (^64CuS) over time ([11]; 60 sec)	Formation of copper sulfide (^64CuS) over time ([11]; 5 min)	Formation of copper sulfide (^64CuS) over time ([11]; 10 min)	other results
C1COCCNCCOCCN1.[64Cu+2] [Example 3]	45 ± 2	3 ± 1	0.4	0.3	5	0	0	3	6	79	100	100	0.1	0.3	48	62	70	75	100	100	Decomplexation [%] [9]: 100%; Formation of copper sulfide (^64CuS) over time ([11]; 15 min): 100; Decomplexation [%] [12]: 0.4%; Decomplexation [%] [13]: 15%; selective uptake in inflamed sites (Paw inflammation model; optical imaging and nuclear medicine imaging): selective uptake; Decomplexation [%] [14]: 0.4%; Decomplexation [%] [15]: 19 ± 5%; Decomplexation [%] [16]: 0.5%; Decomplexation [%] [17]: 15%; Decomplexation [%] [18]: 27 ± 3%; Decomplexation [%] [19]: 16%; Decomplexation [%] [20]: 0.6%; selective reactivity with hydrogen sulfide versus biothiol compounds or anions, in words [21]: did not selectively react with hydrogen sulfide
C1C[N]2CC[N]3CC[N]4CC[N](C1)[64Cu]234 [Example 16, ^64Cu-labeled cyclam]	0.8 ± 0.0	0.6 ± 0.0	0.7 ± 0.2	0.7 ± 0.0	0.5 ± 0.0	0	0	0	0	0	1.3	10.5	0.7 ± 0.0	0.5 ± 0.1	0.8 ± 0.2	0	0	0	3	5	Formation of copper sulfide (^64CuS) over time ([11]; 15 min): 10; Decomplexation [%] [12]: 0.6 ± 0.1%; Decomplexation [%] [13]: 0.8 ± 0.0%; difference between inflamed and normal paws (Paw inflammation model; mouse, in vivo): no obvious difference in the inflamed and normal paws; uptake compared to injection of the same quantity of ^64Cu-labeled cyclen of Example 1 (Paw inflammation model; mouse, in vivo): low uptake; uptake / visualisation of the myocardial infarction site [22]: no specific uptake was observed in the heart; Decomplexation [%] [14]: 0.7 ± 0.2%; Decomplexation [%] [15]: 0.8 ± 0.1%; Decomplexation [%] [16]: 0.5 ± 0.1%; Decomplexation [%] [17]: 0.7 ± 0.2%; Decomplexation [%] [18]: 0.7 ± 0.0%; Decomplexation [%] [19]: 0.5 ± 0.6%; Decomplexation [%] [20]: 0.7 ± 0.1%
